Data from article PMC9078972 (RSC Advances, 2018).
In brackets after ≈: the same amount, converted by molar mass.

Tested on: Mycobacterium tuberculosis H37Ra
Test: microbe, parasite or virus in culture
Assay type: cell-based

In the case of `CCCCN1CCN(c2nc(=O)c3cc(C(F)(F)F)cc([N+](=O)[O-])c3s2)CC1=O` [Compound 1d, 2-(4-Butyl-3-oxopiperazin-1-yl)-8-nitro-6-(trifluoromethyl)-4H-benzo[e][1,3]-thiazin-4-one], the MIC is reported as 0.034 µM (≈ 0.0146 µg/mL).
